Measurements published in patent publication US20150031675A1, “DIAZABICYCLO[3.3.1]NONANES, METHODS OF SYNTHESIS, AND USES THEREOF” (Targacept, Inc., priority 2012, published 2015).
pKi: −log10 of the molar value. Like-named read-outs stand apart in the source and are kept apart here.

Tests used:
Human α4β2 nAChR = molecular target: T1, Human α4β2 nAChR (Homo sapiens, UniProt P17787+P43681); experiment: Radioligand binding ([3H]nicotine) at α4β2 nAChR, membranes from SH-EP1/human α4β2 clonal cells
T1 construct: expressed in transfected cells; host or cells: SH-EP1 clonal cells expressing human α4β2
T1 sequence (P43681 29-627 limits assumed): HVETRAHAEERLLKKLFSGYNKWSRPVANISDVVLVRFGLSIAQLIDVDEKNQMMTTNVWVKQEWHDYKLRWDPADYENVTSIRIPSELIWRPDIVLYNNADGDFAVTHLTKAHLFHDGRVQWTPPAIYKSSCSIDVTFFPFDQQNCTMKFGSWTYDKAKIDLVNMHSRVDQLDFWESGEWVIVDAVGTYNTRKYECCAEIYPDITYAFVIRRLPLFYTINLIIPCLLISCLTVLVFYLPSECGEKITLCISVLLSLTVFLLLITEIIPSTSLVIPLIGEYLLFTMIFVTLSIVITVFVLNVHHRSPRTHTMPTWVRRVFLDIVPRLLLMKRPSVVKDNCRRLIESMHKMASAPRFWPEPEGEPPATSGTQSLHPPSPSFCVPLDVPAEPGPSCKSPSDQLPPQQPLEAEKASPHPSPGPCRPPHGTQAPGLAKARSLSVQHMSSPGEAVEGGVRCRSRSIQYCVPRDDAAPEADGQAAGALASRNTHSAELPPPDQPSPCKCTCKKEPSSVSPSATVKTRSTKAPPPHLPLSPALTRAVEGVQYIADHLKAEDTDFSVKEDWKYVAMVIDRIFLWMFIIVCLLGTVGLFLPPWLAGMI
T1 sequence (P17787 26-502): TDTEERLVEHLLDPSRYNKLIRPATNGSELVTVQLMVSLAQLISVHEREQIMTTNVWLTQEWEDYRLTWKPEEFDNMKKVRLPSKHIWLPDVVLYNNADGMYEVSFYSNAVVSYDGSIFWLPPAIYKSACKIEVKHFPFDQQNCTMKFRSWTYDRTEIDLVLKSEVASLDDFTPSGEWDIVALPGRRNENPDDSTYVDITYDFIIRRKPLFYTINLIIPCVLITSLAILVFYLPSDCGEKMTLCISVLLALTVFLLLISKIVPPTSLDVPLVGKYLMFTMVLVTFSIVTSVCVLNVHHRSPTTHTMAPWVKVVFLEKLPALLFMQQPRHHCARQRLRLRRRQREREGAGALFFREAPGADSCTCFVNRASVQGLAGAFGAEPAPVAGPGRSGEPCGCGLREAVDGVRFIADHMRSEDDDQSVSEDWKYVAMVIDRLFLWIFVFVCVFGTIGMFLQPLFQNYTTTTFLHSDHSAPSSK
Description: Preparation of Membranes from SH-EP1/Human α4β2 Clonal Cells:
Cell pellets from 40 150 mm culture dishes were pooled, and homogenized by Polytron (Kinematica GmbH, Switzerland) in 20 milliliters of ice-cold preparative buffer. The homogenate was centrifuged at 48,000 g for 20 minutes at 4° C. The resulting pellet was re-suspended in 20 mL of ice-cold preparative buffer and stored at −20° C.
On the day of the assay, the frozen membranes were thawed and spun at 48,000×g for 20 min. The supernatant was decanted and discarded. The pellet was resuspended in Dulbecco's phosphate buffered saline (PBS, Life Technologies) pH 7.4 and homogenized with the Polytron for 6 seconds. Protein concentrations were determined using a Pierce BCA Protein Assay Kit, with bovine serum albumin as the standard (Pierce Chemical Company, Rockford, Ill.).
Incubation was terminated by rapid filtration on a multi-manifold tissue harvester (Brandel, Gaithersburg, Md.) using GF/B filters presoaked in 0.33% polyethyleneimine (w/v) to reduce non-specific binding. Tissue was rinsed 3 times in PBS, pH 7.4. Scintillation fluid was added to filters containing the washed tissue and allowed to equilibrate. Filters were then counted to determine radioactivity bound to the membranes by liquid scintillation counting (2200CA Tri-Carb LSC, Packard Instruments, 50% efficiency or Wallac Trilux 1450 MicroBeta, 40% efficiency, Perkin Elmer).
Data were expressed as disintegrations per minute (DPMs). Within each assay, each point had 2-3 replicates.

Human α7 nAChR = Human α7 nAChR (UniProt P36544); experiment: Radioligand binding ([3H]MLA) at α7 nAChR
[1] = competition with 5 nM [3H]MLA; Ki by Cheng-Prusoff; read-out: Human α7 Ki
[2] = read-out: Human α7 Ki; competition with 5 nM [3H]MLA; Ki by Cheng-Prusoff

Row | SMILES | pKi (Human α4β2 nAChR) | pKi (Human α7 nAChR; [1]) | pKi (Human α4β2 nAChR; read-out: Human α4β2 Ki) | pKi (Human α7 nAChR; [2])
1 | c1cncc(N2CC3CC(C2)CN(C2CN4CCC2CC4)C3)c1 (centres unmarked) | 7.38 | 6.29 | – | –
2 | c1cncc(N2CC3CC(C2)CN(C2CCCNC2)C3)c1 (centres unmarked) | – | – | 9.10 | 7.21
3 | c1cncc(N2CC3CC(C2)CN(C2CCNCC2)C3)c1 | 7.85 | 6.10 | – | –
4 | c1cncc(N2CC3CC(C2)CN(C2CCNC2)C3)c1 (centres unmarked) | – | – | 9.80 | 7.62
5 | c1cncc(N2CC3CC(C2)CN(C2CCCNCC2)C3)c1 (centres unmarked) | – | – | 9.35 | 7.70
6 | c1cncc(N2CC3CC(C2)CN(C2CNC2)C3)c1 | 8.24 | 6.26 | – | –
7 | CN1CCC(N2CC3CC(CN(c4cccnc4)C3)C2)C1 (centres unmarked) | 7.96 | 6.10 | – | –
